Experimental data: ChEMBL document CHEMBL5291721, “A preclinical secondary pharmacology resource illuminates target-adverse drug reaction associations of marketed drugs” (Nat Commun, 2023)

Legend:
[1] = molecular target: Histamine H2 receptor (Homo sapiens, UniProt P25021)
[2] = molecular target: Voltage-dependent N-type calcium channel subunit alpha-1B (Rattus norvegicus, UniProt Q02294); format: functional
[3] = molecular target: Gamma-aminobutyric acid type B receptor subunit 1 (Homo sapiens, UniProt Q9UBS5)
[4] = molecular target: T1, Corticotropin-releasing factor receptor 1 (Homo sapiens, UniProt P34998)
T1 sequence (P34998 whole entry): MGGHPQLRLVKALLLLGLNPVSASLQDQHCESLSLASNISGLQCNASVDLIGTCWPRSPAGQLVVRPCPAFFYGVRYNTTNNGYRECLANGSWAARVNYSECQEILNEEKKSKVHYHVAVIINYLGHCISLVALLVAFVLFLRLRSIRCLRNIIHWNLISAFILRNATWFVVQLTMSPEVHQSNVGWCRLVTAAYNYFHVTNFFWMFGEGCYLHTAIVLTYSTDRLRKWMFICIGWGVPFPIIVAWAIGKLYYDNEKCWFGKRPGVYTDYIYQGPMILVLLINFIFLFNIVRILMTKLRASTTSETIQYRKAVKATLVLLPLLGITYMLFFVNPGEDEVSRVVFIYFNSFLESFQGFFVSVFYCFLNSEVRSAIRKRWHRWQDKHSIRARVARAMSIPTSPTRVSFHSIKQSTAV

[5] = molecular target: Estrogen receptor beta (Homo sapiens, UniProt Q92731)
Sequence of Estrogen receptor beta (Q92731 whole entry): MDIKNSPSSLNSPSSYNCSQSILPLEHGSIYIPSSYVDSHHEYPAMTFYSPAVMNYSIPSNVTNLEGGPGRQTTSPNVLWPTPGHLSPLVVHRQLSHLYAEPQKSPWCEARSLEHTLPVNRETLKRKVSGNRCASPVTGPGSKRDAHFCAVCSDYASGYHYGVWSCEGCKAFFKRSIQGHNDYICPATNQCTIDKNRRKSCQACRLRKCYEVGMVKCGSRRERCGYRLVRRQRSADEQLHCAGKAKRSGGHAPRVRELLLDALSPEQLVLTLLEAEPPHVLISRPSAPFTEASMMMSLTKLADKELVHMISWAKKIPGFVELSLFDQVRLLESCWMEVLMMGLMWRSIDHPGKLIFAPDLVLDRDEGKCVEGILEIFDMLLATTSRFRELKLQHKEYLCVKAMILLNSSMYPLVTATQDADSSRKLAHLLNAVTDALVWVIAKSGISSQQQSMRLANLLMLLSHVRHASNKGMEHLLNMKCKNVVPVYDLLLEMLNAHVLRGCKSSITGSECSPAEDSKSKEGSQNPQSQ

[6] = molecular target: T2, Estrogen receptor (Homo sapiens, UniProt P03372); format: functional
T2 sequence (P03372 whole entry): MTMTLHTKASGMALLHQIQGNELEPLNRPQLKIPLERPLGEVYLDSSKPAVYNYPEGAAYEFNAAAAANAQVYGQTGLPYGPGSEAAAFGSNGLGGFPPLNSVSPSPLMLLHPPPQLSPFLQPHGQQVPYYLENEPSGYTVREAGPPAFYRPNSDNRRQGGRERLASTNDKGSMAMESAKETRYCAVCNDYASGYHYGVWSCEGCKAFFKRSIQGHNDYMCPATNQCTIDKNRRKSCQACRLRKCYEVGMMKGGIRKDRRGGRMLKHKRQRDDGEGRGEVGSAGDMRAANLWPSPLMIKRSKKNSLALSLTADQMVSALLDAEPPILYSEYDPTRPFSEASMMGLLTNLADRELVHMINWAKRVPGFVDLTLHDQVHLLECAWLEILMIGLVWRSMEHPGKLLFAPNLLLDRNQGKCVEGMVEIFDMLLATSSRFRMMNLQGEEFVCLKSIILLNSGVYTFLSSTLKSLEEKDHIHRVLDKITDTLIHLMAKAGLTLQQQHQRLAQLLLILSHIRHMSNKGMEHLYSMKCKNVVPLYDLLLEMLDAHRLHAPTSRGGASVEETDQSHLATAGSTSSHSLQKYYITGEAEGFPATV

[7] = molecular target: Voltage-dependent L-type calcium channel subunit alpha-1C (Homo sapiens, UniProt Q13936); format: functional, cell-based
Sequence of Voltage-dependent L-type calcium channel subunit alpha-1C (Q13936 whole entry): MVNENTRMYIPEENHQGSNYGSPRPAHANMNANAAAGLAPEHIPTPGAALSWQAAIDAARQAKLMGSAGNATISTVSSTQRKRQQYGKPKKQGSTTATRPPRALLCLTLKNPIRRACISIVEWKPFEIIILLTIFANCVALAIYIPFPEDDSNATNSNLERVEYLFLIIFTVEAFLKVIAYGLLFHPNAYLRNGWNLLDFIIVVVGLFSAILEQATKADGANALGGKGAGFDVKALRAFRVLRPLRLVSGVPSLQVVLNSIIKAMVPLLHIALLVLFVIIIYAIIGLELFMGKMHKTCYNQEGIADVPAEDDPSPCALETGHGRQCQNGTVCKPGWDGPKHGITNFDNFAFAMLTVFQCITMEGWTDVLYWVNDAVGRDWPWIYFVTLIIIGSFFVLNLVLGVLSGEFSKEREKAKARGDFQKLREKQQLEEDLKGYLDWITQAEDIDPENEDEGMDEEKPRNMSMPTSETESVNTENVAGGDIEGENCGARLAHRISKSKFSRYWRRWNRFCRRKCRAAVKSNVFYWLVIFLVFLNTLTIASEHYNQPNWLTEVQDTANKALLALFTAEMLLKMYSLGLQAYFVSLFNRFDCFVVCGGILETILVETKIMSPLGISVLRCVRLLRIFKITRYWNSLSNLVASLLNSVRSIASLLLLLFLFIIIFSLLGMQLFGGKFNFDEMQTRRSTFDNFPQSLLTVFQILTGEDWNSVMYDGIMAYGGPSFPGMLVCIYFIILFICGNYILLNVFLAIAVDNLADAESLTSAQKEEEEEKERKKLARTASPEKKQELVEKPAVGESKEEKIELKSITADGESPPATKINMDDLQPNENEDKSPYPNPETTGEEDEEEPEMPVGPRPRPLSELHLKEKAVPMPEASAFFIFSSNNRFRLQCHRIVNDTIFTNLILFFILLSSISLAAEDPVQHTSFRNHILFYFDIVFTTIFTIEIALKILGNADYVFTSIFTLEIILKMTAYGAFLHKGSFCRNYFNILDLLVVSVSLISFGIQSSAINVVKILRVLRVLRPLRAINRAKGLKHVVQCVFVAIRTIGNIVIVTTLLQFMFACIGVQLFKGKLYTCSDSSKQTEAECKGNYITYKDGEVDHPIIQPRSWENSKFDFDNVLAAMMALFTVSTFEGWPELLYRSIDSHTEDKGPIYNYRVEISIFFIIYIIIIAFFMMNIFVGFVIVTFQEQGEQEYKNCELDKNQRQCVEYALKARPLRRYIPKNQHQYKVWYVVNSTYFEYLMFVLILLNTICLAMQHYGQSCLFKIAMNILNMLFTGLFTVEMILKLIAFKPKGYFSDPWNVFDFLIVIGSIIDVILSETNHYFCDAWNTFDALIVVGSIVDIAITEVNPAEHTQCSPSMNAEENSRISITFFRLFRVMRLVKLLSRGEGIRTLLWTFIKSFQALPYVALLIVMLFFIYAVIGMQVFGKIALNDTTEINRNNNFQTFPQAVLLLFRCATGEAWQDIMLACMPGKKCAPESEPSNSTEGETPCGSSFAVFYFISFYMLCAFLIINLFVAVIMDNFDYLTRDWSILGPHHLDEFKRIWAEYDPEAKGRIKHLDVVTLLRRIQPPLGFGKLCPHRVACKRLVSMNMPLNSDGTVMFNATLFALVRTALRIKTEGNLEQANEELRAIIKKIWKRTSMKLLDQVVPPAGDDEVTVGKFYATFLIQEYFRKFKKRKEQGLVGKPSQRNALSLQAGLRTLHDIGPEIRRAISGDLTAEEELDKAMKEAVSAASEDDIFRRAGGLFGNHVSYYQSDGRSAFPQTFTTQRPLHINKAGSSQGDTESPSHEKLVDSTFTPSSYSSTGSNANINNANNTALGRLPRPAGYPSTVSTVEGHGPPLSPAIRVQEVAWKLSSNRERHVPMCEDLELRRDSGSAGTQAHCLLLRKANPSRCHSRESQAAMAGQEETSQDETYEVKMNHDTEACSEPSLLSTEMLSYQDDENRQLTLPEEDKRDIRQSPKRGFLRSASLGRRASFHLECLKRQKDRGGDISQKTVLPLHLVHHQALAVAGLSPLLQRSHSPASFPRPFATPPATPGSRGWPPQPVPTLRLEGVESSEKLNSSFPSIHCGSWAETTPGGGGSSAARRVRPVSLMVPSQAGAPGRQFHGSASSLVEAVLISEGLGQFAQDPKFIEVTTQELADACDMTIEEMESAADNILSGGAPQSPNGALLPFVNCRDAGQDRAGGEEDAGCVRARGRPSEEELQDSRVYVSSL

[8] = molecular target: T3, Muscarinic acetylcholine receptor M5 (Homo sapiens, UniProt P08912)
T3 sequence (P08912 whole entry): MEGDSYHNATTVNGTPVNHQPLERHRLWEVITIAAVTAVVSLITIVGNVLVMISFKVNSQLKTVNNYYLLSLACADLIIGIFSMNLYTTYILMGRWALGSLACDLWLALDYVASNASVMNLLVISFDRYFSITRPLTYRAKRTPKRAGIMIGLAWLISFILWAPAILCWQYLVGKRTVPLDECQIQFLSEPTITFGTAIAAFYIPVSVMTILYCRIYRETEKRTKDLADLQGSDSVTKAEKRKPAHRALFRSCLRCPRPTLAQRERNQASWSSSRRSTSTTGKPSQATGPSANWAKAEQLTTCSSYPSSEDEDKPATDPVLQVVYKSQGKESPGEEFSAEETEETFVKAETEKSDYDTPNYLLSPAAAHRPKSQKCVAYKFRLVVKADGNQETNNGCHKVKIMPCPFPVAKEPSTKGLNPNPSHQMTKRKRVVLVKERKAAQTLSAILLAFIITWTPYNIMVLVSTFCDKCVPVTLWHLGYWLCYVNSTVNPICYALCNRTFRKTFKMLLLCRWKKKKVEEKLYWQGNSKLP

[9] = molecular target: T4, Type-2 angiotensin II receptor (Homo sapiens, UniProt P50052); format: functional
T4 sequence (P50052 whole entry): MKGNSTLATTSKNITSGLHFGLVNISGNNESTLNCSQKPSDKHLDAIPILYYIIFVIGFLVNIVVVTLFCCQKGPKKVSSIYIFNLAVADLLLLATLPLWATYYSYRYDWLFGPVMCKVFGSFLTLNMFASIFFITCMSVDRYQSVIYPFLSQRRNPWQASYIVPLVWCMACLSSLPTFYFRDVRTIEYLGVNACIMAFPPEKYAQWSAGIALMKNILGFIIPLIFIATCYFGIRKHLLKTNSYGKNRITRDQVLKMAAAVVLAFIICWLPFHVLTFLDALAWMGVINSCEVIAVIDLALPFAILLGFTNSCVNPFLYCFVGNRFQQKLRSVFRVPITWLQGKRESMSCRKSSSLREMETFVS

[10] = molecular target: D(1B) dopamine receptor (Homo sapiens, UniProt P21918)
[11] = molecular target: T4, Type-2 angiotensin II receptor; format: functional; remark: listed apart in the source
[12] = molecular target: D(1A) dopamine receptor (Homo sapiens, UniProt P21728); format: functional, cell-based
Note: assay procedure not described here.

Sequence of Voltage-dependent N-type calcium channel subunit alpha-1B (Q02294 whole entry): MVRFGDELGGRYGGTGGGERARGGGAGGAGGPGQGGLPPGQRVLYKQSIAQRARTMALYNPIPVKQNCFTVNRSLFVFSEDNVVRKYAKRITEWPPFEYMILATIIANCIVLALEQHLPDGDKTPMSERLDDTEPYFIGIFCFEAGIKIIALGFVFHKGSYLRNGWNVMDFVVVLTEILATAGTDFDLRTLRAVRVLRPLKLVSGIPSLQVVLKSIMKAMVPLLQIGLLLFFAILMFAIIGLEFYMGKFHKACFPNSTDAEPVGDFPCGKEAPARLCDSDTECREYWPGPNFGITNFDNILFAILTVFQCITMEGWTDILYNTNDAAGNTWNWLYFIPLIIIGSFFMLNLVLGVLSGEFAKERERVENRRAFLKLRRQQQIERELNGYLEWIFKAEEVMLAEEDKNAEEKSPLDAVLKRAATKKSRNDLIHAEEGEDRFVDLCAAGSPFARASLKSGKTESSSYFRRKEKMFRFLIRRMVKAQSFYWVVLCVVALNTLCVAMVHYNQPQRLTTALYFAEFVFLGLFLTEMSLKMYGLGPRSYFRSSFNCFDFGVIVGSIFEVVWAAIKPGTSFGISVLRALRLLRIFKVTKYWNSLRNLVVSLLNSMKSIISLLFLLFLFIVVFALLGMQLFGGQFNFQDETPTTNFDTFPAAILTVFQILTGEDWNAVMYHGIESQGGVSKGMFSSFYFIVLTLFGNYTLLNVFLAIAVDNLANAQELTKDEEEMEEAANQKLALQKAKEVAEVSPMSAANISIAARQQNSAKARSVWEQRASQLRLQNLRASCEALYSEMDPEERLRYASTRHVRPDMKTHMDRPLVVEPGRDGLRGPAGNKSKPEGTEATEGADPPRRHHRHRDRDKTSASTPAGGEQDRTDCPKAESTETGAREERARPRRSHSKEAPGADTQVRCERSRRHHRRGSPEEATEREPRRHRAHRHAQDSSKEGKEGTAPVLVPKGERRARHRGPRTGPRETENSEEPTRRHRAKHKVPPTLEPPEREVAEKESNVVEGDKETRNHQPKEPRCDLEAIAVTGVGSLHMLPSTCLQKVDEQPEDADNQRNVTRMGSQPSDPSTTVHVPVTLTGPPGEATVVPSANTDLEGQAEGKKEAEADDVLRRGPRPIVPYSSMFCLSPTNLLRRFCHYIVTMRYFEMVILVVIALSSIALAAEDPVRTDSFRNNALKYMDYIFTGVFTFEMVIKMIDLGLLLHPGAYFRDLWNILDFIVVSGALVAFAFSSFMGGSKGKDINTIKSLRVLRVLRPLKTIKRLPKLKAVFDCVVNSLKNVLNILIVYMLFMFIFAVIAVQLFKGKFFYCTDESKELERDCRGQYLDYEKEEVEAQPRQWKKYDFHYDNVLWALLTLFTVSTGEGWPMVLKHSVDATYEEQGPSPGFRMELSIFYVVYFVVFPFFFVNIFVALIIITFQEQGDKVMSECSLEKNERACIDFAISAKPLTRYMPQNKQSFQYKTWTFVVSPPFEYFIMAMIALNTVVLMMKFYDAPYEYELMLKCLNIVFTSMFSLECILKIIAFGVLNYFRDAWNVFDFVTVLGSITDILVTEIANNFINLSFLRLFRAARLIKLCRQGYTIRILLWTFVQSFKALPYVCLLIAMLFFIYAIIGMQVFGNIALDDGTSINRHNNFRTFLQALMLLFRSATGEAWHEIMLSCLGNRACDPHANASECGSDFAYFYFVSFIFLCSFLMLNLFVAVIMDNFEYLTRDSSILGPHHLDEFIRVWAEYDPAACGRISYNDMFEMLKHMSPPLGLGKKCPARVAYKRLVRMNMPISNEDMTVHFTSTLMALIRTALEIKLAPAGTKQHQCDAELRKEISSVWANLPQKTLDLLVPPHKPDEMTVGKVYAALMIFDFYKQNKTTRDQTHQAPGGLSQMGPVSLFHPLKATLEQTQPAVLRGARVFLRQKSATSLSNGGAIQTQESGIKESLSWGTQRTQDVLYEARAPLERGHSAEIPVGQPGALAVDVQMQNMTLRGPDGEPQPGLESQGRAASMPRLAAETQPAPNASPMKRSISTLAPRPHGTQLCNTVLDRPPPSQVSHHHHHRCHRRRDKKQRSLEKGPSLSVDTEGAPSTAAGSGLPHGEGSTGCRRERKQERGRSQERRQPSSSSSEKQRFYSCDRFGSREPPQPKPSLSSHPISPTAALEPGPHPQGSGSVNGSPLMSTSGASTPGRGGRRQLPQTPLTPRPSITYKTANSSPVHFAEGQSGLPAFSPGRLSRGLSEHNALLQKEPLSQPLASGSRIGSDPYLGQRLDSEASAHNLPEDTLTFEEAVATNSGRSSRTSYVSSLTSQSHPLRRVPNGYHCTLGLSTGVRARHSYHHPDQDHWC

SMILES: CNS(=O)(=O)Cc1ccc2[nH]cc(CCN(C)C)c2c1
- AC50 [1]: > 10 µM
- AC50 [2]: > 10 µM
- AC50 [3]: > 10 µM
- AC50 [4]: > 30 µM
- AC50 [5]: > 30 µM

SMILES: CC(=O)O[C@H]1CC[C@@]2(C)C(=CC[C@@H]3[C@@H]2CC[C@]2(C)C(c4cccnc4)=CC[C@@H]32)C1 [ABIRATERONE ACETATE]
- AC50 [6]: > 30 µM
- AC50 [7]: > 30 µM

SMILES: COC(=O)C1=C(C)NC(C)=C(C(=O)OC2CCCN(Cc3ccccc3)C2)C1c1cccc([N+](=O)[O-])c1 (configuration not stated) [BENIDIPINE]
- AC50 [7]: 1.9 µM

SMILES: COc1ccc2c3c1O[C@H]1[C@@H](O)C=C[C@H]4[C@@H](C2)N(C)CC[C@@]341 [CODEINE]
- AC50 [1]: > 10 µM
- AC50 [2]: > 10 µM
- AC50 [3]: > 10 µM
- AC50 [8]: > 10 µM
- AC50 [4]: > 30 µM

SMILES: CCCCc1ncc(/C=C(\Cc2cccs2)C(=O)O)n1Cc1ccc(C(=O)O)cc1 [EPROSARTAN]
- AC50 [1]: > 10 µM
- AC50 [2]: > 10 µM
- AC50 [9]: > 100 µM
- AC50 [10]: > 10 µM
- AC50 [3]: > 10 µM
- AC50 [8]: > 10 µM
- AC50 [4]: > 30 µM
- AC50 [11]: > 100 µM

SMILES: CCc1c(Cl)c(O)c(Cl)c(O)c1C(=O)O[C@H]1[C@H](O)[C@H](OC)[C@H](OC/C2=C\C=C\C[C@H](O)/C(C)=C/[C@H](CC)[C@@H](O[C@@H]3OC(C)(C)[C@@H](OC(=O)C(C)C)[C@H](O)[C@@H]3O)/C(C)=C/C(C)=C/C[C@@H]([C@@H](C)O)OC2=O)O[C@@H]1C [FIDAXOMICIN]
- AC50 [1]: > 10 µM
- AC50 [2]: > 10 µM
- AC50 [4]: > 30 µM
- AC50 [5]: > 30 µM

SMILES: CC(C)(C)c1cc(C(C)(C)C)c(NC(=O)c2c[nH]c3ccccc3c2=O)cc1O [IVACAFTOR]
- AC50 [1]: > 10 µM
- AC50 [2]: > 10 µM

SMILES: COC(=O)C1=C(C)NC(C)=C(C(=O)OC(C)(C)CN(C)CCC(c2ccccc2)c2ccccc2)C1c1cccc([N+](=O)[O-])c1 (configuration not stated) [LERCANIDIPINE]
- AC50 [7]: > 50 µM

SMILES: C[C@](N)(Cc1ccc(O)c(O)c1)C(=O)O [METHYLDOPA]
- AC50 [9]: > 100 µM

SMILES: CCCc1nc(C(C)(C)O)c(C(=O)OCc2oc(=O)oc2C)n1Cc1ccc(-c2ccccc2-c2nnn[nH]2)cc1 [OLMESARTAN MEDOXOMIL]
- AC50 [2]: > 10 µM
- AC50 [4]: > 30 µM
- AC50 [5]: > 30 µM
- AC50 [11]: 74.3 µM

SMILES: N#Cc1ccc([C@H]2CCc3cncn32)c(F)c1 [OSILODROSTAT]
- AC50 [1]: > 10 µM
- AC50 [2]: > 10 µM
- AC50 [10]: > 10 µM
- AC50 [3]: > 10 µM
- AC50 [8]: > 10 µM

SMILES: CC[C@@H]1C(=O)OC[C@@H]1Cc1cncn1C [PILOCARPINE]
- AC50 [2]: > 10 µM

SMILES: Clc1ccc(CCCOCCCN2CCCCC2)cc1 [PITOLISANT]
- AC50 [7]: 10.4 µM

SMILES: CN1CCC(=C2c3ccccc3CCc3sccc32)CC1 [PIZOTYLINE]
- AC50 [12]: 0.65 µM

SMILES: CCCN(CCC)C(=O)C(CCC(=O)O)NC(=O)c1ccccc1 (configuration not stated) [PROGLUMIDE]
- AC50 [1]: > 10 µM
- AC50 [2]: > 10 µM
- AC50 [4]: > 30 µM

SMILES: CN1C(=O)C(O)N=C(c2ccccc2)c2cc(Cl)ccc21 (configuration not stated) [TEMAZEPAM]
- AC50 [1]: > 10 µM
- AC50 [2]: > 10 µM
- AC50 [4]: > 30 µM
- AC50 [5]: > 30 µM

SMILES: C/C(O)=C(\C#N)C(=O)Nc1ccc(C(F)(F)F)cc1 [TERIFLUNOMIDE]
- AC50 [6]: > 30 µM

SMILES: CC(CC(c1ccccc1)c1ccccc1)NC(C)(C)C (configuration not stated) [TERODILINE]
- AC50 [7]: > 50 µM

SMILES: CN1CCN(CC/C=C2/c3ccccc3Sc3ccc(S(=O)(=O)N(C)C)cc32)CC1 [THIOTHIXENE]
- AC50 [1]: 0.145 µM
- AC50 [2]: > 10 µM
- AC50 [3]: > 10 µM
- AC50 [4]: > 30 µM
- AC50 [5]: > 30 µM
- AC50 [12]: 0.98 µM

SMILES: C=CCN1CCCC1CNC(=O)c1cc(S(N)(=O)=O)cc(OC)c1OC (configuration not stated) [VERALIPRIDE]
- AC50 [12]: > 30 µM
